{"source": "ChEMBL document CHEMBL4229416", "about": "“Identification of PKMYT1 inhibitors by screening the GSK published protein kinase inhibitor set I and II” (Bioorg Med Chem, 2018)", "key": {"[1]": {"biological_target": "T1, Membrane-associated tyrosine- and threonine-specific cdc2-inhibitory kinase (Homo sapiens, UniProt Q99640)", "T1 sequence (Q99640 whole entry)": "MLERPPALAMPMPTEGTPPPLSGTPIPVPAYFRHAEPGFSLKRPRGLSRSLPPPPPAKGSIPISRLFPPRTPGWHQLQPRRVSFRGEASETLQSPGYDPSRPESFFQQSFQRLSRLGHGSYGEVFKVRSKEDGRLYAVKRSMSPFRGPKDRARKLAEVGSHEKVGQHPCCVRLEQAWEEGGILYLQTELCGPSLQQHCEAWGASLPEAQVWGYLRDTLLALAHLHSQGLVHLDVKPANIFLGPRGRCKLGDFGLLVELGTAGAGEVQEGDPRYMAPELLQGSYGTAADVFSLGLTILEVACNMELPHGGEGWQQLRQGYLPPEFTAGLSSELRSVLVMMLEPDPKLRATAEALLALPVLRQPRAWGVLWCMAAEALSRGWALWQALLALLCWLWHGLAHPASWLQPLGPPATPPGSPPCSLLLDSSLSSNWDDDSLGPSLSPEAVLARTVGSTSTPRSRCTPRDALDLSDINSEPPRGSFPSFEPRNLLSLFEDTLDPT", "experiment": "Inhibition of human full length PKMYT1 expressed in HEK293 cells using EFS (247 to 259 residues) as substrate after 1 hr by fluorescence polarization immunoasay"}, "[2]": {"biological_target": "T1, Membrane-associated tyrosine- and threonine-specific cdc2-inhibitory kinase", "experiment": "Inhibition of N-[3',6'-dihydroxy-3-oxo-3H-spiro(2-benzofuran-1,9'-xanthen)-5-yl]-N'-[2-(4-{4-[N-(2-chloro-6-methylphenyl)-5-carboxamido]-thiazol-2-yl})-amino-2-methyl-pyrimid-6-yl)piperazinyl]-ethyl]thiourea binding to human PKMYT1 kinase doamin expressed in Escherichia coli BL21 after 120 mins by fluorescence polarization asay"}, "[3]": {"biological_target": "T2, Membrane-associated tyrosine- and threonine-specific cdc2-inhibitory kinase (Homo sapiens) (UniProt Q99640)", "T2 sequence (whole entry)": "T1 sequence (Q99640 whole entry)", "experiment": "Inhibition of human full length PKMYT1 expressed in HEK293 cells assessed as decrease in GST-tagged Cdk1 phosphorylation at tyrosine 15 at 5 to 20 uM after 1 hr by Western blot method relative to control", "format": "cell-based"}, "[4]": {"biological_target": "T2, Membrane-associated tyrosine- and threonine-specific cdc2-inhibitory kinase (Homo sapiens)", "experiment": "Inhibition of PKMYT1 in human HT29 cells assessed as decrease in Cdk1 phosphorylation at tyrosine 15 at 4 uM after 24 hrs by Western blot method", "format": "cell-based"}}, "note": "Calls of active or inactive are those of the source. The calls are words filed in the database; no cut-off is given here."}
{"smiles": "CNC(=O)c1ccccc1Nc1nc(Nc2ccc(N3CCOCC3)cc2)ncc1Cl", "values": [{"measurement": "IC50", "setting": "[1]", "result": 270, "unit": "nM"}, {"measurement": "Ki", "setting": "[1]", "result": 25.7, "unit": "nM"}, {"measurement": "IC50", "setting": "[2]", "result": 352, "unit": "nM"}, {"measurement": "Ki", "setting": "[2]", "result": 180, "unit": "nM"}, {"measurement": "inhibition", "setting": "[3]", "result": "Active"}, {"measurement": "inhibition", "setting": "[4]", "result": "Active"}]}
{"smiles": "NC(=O)c1cc(-c2ccncc2)cc(-c2ccccc2)c1N", "note": "[GSK-625137A]", "values": [{"measurement": "IC50", "setting": "[1]", "result": 58000, "unit": "nM"}, {"measurement": "Ki", "setting": "[1]", "result": 5520, "unit": "nM"}, {"measurement": "IC50", "setting": "[2]", "result": 11400, "unit": "nM"}, {"measurement": "Ki", "setting": "[2]", "result": 5810, "unit": "nM"}, {"measurement": "inhibition", "setting": "[3]", "result": "Active"}]}
{"smiles": "Oc1cccc(Nc2ccnc3cc(-c4ccncc4)ccc23)c1", "values": [{"measurement": "IC50", "setting": "[1]", "result": 706, "unit": "nM"}, {"measurement": "Ki", "setting": "[1]", "result": 67.2, "unit": "nM"}, {"measurement": "IC50", "setting": "[2]", "result": 332, "unit": "nM"}, {"measurement": "Ki", "setting": "[2]", "result": 201, "unit": "nM"}, {"measurement": "inhibition", "setting": "[3]", "result": "Active"}]}
{"smiles": "NC(=O)c1cccc(Nc2nccc(Nc3cccc4[nH]ncc34)n2)c1", "note": "[GW782612X]", "values": [{"measurement": "inhibition", "setting": "[3]", "result": "Active"}]}
{"smiles": "O=C(Nc1cccc(-c2nn3ncccc3c2-c2ccnc(Nc3cccnc3)n2)c1)c1c(F)cccc1F", "values": [{"measurement": "IC50", "setting": "[1]", "result": 7560, "unit": "nM"}, {"measurement": "Ki", "setting": "[1]", "result": 720, "unit": "nM"}, {"measurement": "IC50", "setting": "[2]", "result": 18900, "unit": "nM"}, {"measurement": "Ki", "setting": "[2]", "result": 14700, "unit": "nM"}, {"measurement": "inhibition", "setting": "[3]", "result": "Active"}]}
{"smiles": "Cc1cc(Nc2ncc3cc(-c4c(Cl)cccc4Cl)c(=O)n(C)c3n2)ccc1F", "values": [{"measurement": "IC50", "setting": "[1]", "result": 109, "unit": "nM"}, {"measurement": "Ki", "setting": "[1]", "result": 10.4, "unit": "nM"}, {"measurement": "IC50", "setting": "[2]", "result": 2700, "unit": "nM"}, {"measurement": "Ki", "setting": "[2]", "result": 13500, "unit": "nM"}]}
{"smiles": "COc1cc2ncnc(Nc3cccc(Cl)c3)c2cc1OC", "note": "[TYRPHOSTIN AG-1478]", "values": [{"measurement": "IC50", "setting": "[1]", "result": 19600, "unit": "nM"}, {"measurement": "Ki", "setting": "[1]", "result": 1870, "unit": "nM"}, {"measurement": "IC50", "setting": "[2]", "result": 55000, "unit": "nM"}, {"measurement": "Ki", "setting": "[2]", "result": 26200, "unit": "nM"}]}
{"smiles": "CCN(CC)CCOc1ccc(Nc2ncc3cc(-c4c(Cl)cccc4Cl)c(=O)n(C)c3n2)cc1", "note": "[PD-0166285]", "values": [{"measurement": "IC50", "setting": "[1]", "result": 8, "unit": "nM"}, {"measurement": "Ki", "setting": "[1]", "result": 0.8, "unit": "nM"}, {"measurement": "IC50", "setting": "[2]", "result": 31.1, "unit": "nM"}, {"measurement": "Ki", "setting": "[2]", "result": 2, "unit": "nM"}]}
{"smiles": "Cc1cc(O)cc(C)c1/C=C/c1cncc(C(N)=O)c1", "note": "[GW435821X]", "values": [{"measurement": "IC50", "setting": "[1]", "result": 14500, "unit": "nM"}, {"measurement": "Ki", "setting": "[1]", "result": 1380, "unit": "nM"}, {"measurement": "IC50", "setting": "[2]", "result": 876, "unit": "nM"}, {"measurement": "Ki", "setting": "[2]", "result": 522, "unit": "nM"}, {"measurement": "inhibition", "setting": "[3]", "result": "Active"}]}
{"smiles": "Cc1cc(O)cc(Nc2ccnc3cc(-c4ccccn4)ccc23)c1", "values": [{"measurement": "IC50", "setting": "[1]", "result": 543, "unit": "nM"}, {"measurement": "Ki", "setting": "[1]", "result": 51.7, "unit": "nM"}, {"measurement": "IC50", "setting": "[2]", "result": 9430, "unit": "nM"}, {"measurement": "Ki", "setting": "[2]", "result": 6150, "unit": "nM"}, {"measurement": "inhibition", "setting": "[3]", "result": "Active"}, {"measurement": "inhibition", "setting": "[4]", "result": "Active"}]}
{"smiles": "COc1cc(Nc2ncc(C#N)c(Nc3ccccc3C(N)=O)n2)ccc1N1CCN(C)CC1", "values": [{"measurement": "inhibition", "setting": "[3]", "result": "Active"}, {"measurement": "inhibition", "setting": "[4]", "result": "Active"}]}
{"smiles": "Cn1c(=O)c(-c2c(Cl)cccc2Cl)cc2cnc(Nc3ccc(N4CCOCC4)cc3)nc21", "values": [{"measurement": "IC50", "setting": "[1]", "result": 24, "unit": "nM"}, {"measurement": "Ki", "setting": "[1]", "result": 2.3, "unit": "nM"}, {"measurement": "IC50", "setting": "[2]", "result": 55, "unit": "nM"}, {"measurement": "Ki", "setting": "[2]", "result": 8.1, "unit": "nM"}]}
{"smiles": "CNC(=O)c1ccccc1Nc1nc(Nc2cccc(CS(C)(=O)=O)c2)ncc1C", "values": [{"measurement": "IC50", "setting": "[1]", "result": 115, "unit": "nM"}, {"measurement": "Ki", "setting": "[1]", "result": 10.9, "unit": "nM"}, {"measurement": "IC50", "setting": "[2]", "result": 151, "unit": "nM"}, {"measurement": "Ki", "setting": "[2]", "result": 104, "unit": "nM"}, {"measurement": "inhibition", "setting": "[3]", "result": "Active"}, {"measurement": "inhibition", "setting": "[4]", "result": "Active"}]}
